Patent US12274688B2, “Drug-loaded mesoporous silica nanoparticle for prevention and treatment of brain cancers or brain metastases” (NANO TARGETING & THERAPY BIOPHARMA INC, priority 2022, dated 2025)

How the values were obtained:
[1] = test system: TMZ-resistant glioma cells (U87MG-R); assay: Orthotopic TMZ-resistant brain tumor mouse model (survival, tumor size)
Method: TMZ-resistant glioma cells (U87MG-R) were cultured at 37° C. in a humidified 5% CO2 atmosphere in Dulbecco's Modified Eagle Medium (DMEM) supplemented with 10% fetal bovine serum and 100 ug/mL penicillin/streptomycin. NOD-SCID male mice (8-week-old) were purchased from BioLASCO Taiwan Co. Ltd. For intracranial transplantation, an experimental procedure was performed under sterile conditions. For TMZ-resistant glioblastoma transplantation, a skull burr hole was created in the right frontal brain area. Cells (2×10^5, or five microliters of TMZ-resistant glioma cell suspension (U87MG-R, 6×10^5 cells/5 μL) were injected into the cortex at a depth of 3 mm using stereotactic guidance and a microprocessor single syringe (Harvard Apparatus, Holliston, MA, USA).
(§1) The administration frequency was twice per week until the end of the study. DTX, CTX and PBS were intravenously (IV) injected and TMZ was intraperitoneally (IP) injected into mice. To assess overall survival, mice were monitored up to the point of spontaneous death or approaching moribund status.
Body weight and survival time of animals were monitored up to the point of spontaneous death.

[2] = Toxicity/tolerability in mice transplanted with TMZ-resistant brain tumors; conditions: for Survival of mice to the end of the testing period: 10 or 20 mg/kg IV with TMZ 10 mg/kg, testing period (15)/19 days; for Toxicity (body weight decrease, low survival rate): dose of 10 mg/kg or above IV, with TMZ 10 mg/kg IP
From the text: (§2) To evaluate the toxicity of DTX and CTX and the efficacy of direct administration of DTX and CTX on treating TMZ resistant brain tumors, 36 mice transplanted with TMZ-resistant brain tumors were used in the experiments, divided into six groups, each group having six mice; details of dosage are noted in Table 7 below:
as §1

[3] = mouse, in vivo, iv
From the text: as §2, §1

[4] = 10 mg/kg IV + TMZ 10 mg/kg IP, twice per week
[5] = 20 mg/kg IV + TMZ 10 mg/kg IP, twice per week
[6] = PBS IV + TMZ 10 mg/kg IP, twice per week

SMILES	Median Survival Time (days after 1st injection) [1, 4] [days]	Median Survival Time (days after implantation of tumor cells) [1, 4] [days]	Median Survival Time (days after 1st injection) [1, 5] [days]	Median Survival Time (days after implantation of tumor cells) [1, 5] [days]	Survival of mice to the end of the testing period [2]	Toxicity (body weight decrease, low survival rate) [2]	Signs of toxicity [3]	Median Survival Time (days after 1st injection) [1, 6] [days]	Median Survival Time (days after implantation of tumor cells) [1, 6] [days]	Median Survival Time (days after implantation of tumor cells) ([1]; Table 9: PBS + TMZ (10 mg/kg))	Median Survival Time (days after implantation of tumor cells) ([1]; Table 10: PBS + TMZ (10 mg/kg))	Toxicity of direct administration ([2]; dose of 5 mg/kg or higher)
CC(=O)O[C@@]12CO[C@@H]1C[C@H](O)[C@@]1(C)C(=O)[C@H](O)C3=C(C)[C@@H](OC(=O)[C@H](O)[C@@H](NC(=O)OC(C)(C)C)c4ccccc4)C[C@@](O)([C@@H](OC(=O)c4ccccc4)[C@H]21)C3(C)C [DTX, docetaxel]	15	19	11	15	all mice died before the end of the testing period	high toxicity	immobility, interaction deficits, and more body weight loss	–	–	–	–	–
Cn1nnc2c(C(N)=O)ncn2c1=O [TMZ, temozolomide]	–	–	–	–	–	–	–	23	27	27 [26.5] days	27 [26.5] days	–
CO[C@H]1C(=O)[C@]2(C)[C@@H](OC)C[C@H]3OC[C@@]3(OC(C)=O)[C@H]2[C@H](OC(=O)c2ccccc2)[C@]2(O)C[C@H](OC(=O)[C@H](O)[C@@H](NC(=O)OC(C)(C)C)c3ccccc3)C(C)=C1C2(C)C [CTX, cabazitaxel]	11	15	8	12	all mice died before the end of the testing period	high toxicity	–	–	–	–	–	high toxicity
